Experimental data as given in ChEMBL document CHEMBL1126432, “Synthesis and biological activity of carbocyclic derivatives of the potent antiviral agent 9-[2-(phosphonomethoxy)ethyl]guanine (PMEG)” (Bioorg Med Chem Lett, 1992).
≈ marks a conversion by molar mass, not a printed value.

Columns and labels:
Type in all cases: functional, cell-based
CCRF-CEM [1] = test: In vitro antiviral activity expressed as IC50 against HIV (CEM cells); settings: Homo sapiens
CCRF-CEM [2] = test: In vitro antiviral activity expressed as IC50 against HIV (CEM cells); 11-25; settings: Homo sapiens
Vero = test: In vitro antiviral activity expressed as IC50 against herpes simplex virus type 2 (HSV-2) in vero cells; settings: Chlorocebus sabaeus

SMILES | IC50 (CCRF-CEM [1]) [µg/mL] | IC50 (CCRF-CEM [2]) [µg/mL] | IC50 (Vero) [µg/mL]
CC(COCP(=O)(O)O)n1cnc2c(O)nc(N)nc21 (stereo not drawn) | 3 (≈ 9.89 µM) | – | –
CC(Cn1cnc2c(=O)[nH]c(N)nc21)OCP(=O)(O)O (stereo not drawn) | – | 11 (≈ 36.3 µM) | –
Nc1nc(O)c2ncn([C@H]3CCC[C@@H]3OCP(=O)(O)O)c2n1 | > 100 | – | > 100
Nc1nc(O)c2ncn([C@H]3C=C[C@@H](OCP(=O)(O)O)C3)c2n1 | 66 (≈ 202 µM) | – | > 100
Nc1nc(O)c2ncn([C@@H]3C=C[C@H](OCP(=O)(O)O)C3)c2n1 | 26 (≈ 79.5 µM) | – | –

The next lines start with results.

IC50 (CCRF-CEM [1]) [µg/mL] | IC50 (CCRF-CEM [2]) [µg/mL] | SMILES | IC50 (Vero) [µg/mL]
> 100 | – | Nc1nc(O)c2ncn([C@H]3CC[C@@H](OCP(=O)(O)O)C3)c2n1 | > 100
0.2 (≈ 0.692 µM) | – | Nc1nc2c(ncn2CCOCP(=O)(O)O)c(=O)[nH]1 [GS-438] | 0.7 (≈ 2.42 µM)
20 (≈ 60.7 µM) | – | Nc1nc(O)c2ncn([C@H]3CCC[C@H]3OCP(=O)(O)O)c2n1 | > 100
